One test deals with U-87 MG cells. Put plainly: Cell proliferation assay in U-87 MG cells. It is filed as cell-based. As to conditions: Homo sapiens, 240 h, day 10, read-out: Prolif_U87 IC50. As to the method: One day before experiment, Granta-519 cells were passaged to a density of 0.5×10^6 cells/ml. U-87 MG cells were trypsinized and 2,000 cells were seeded into 96-well plates and allow to grow overnight. On the day of experiment (day 0), Granta-519 Cells were spun down at 1,500 rpm for 4 min, resuspended in fresh medium to 0.5×10^6 cells/ml and 190 ul of cells were added to 96 well plates. For U-87 MG cells, old medium was removed and replaced with 190 uL fresh medium. Compound working stocks were first diluted at 1:50 with fresh medium in 96 well plate and 10 μL of diluted drugs were added to 96 well plates containing cells and incubated for 3 days. DMSO was used a vehicle control.
One day 3, 50 uL of Granta-519 cells were transferred to a new 96-well plate and 140 uL fresh medium was added. For U-87 MG cells, old medium was removed and replaced with 190 uL fresh medium. Compound working stocks were freshly diluted at 1:50 with medium and 10 μL of diluted drugs were added to cells and grow for 3 additional days. The same process was repeated on day 6. Cells were allowed to grow for additional 4 days.
On day 10, 100 uL Granta-519 cells were transferred to a new 96 well plate and 10 μL of Cell Counting Kit-8 (CCK-8, Jojindo, CK04-13) solution was added. For U-87 MG cells, old medium was removed and replaced with 100 uL fresh medium and 10 uL CCK-8 solution was added. Plates were incubated in CO2 incubator for 2 hours (Granta-519 cells) or 30 min (U-87 MG cells) and OD450 values were measured with a microplate reader (iMark microplate reader, Bio-Rad). Percentage of viable cells, relative to DMSO vehicle control, were calculated and plotted in Graphpad Prism ([Inhibitor]vs. normalized response−Variable slope) to determine proliferation IC50 values on day 10.
These cell proliferation procedures produced the data in Table 7.

The target in test [1] is T1, PRMT5/MEP50 complex (Homo sapiens (Human), UniProt O14744). Kind of test: Flash plate assay. In kind it is biochemical. The following applies: read-out: Flash Plate IC50. The protocol: Flash plate assay. Compounds were solubilized, and 3-fold diluted in 100% DMSO. […] Standard reactions were performed in a total volume of 30 μl in assay buffer, with 300 nM histone H4 based AcH4-23 (Anaspec: AS-65002) as substrate. To this was added the PRMT5/MEP50 complex diluted to provide a final assay concentration of 2.5 nM and the compounds were allowed to preincubate for 20 minutes at 37° C. The reaction was initiated by adding S-[3H-methyl]-adenosyl-L-methionine (PerkinElmer: NET155001MC) to final concentration of 1 μM. Following a 30 minutes incubation at 37° C., the reaction was stopped by adding 25 μL of 8M Guanidine HCl. Prepare streptavidin YSI SPA beads (Perkinelmer: RPNQ0012) at 0.3 mg/mL in assay buffer. To each reaction, add 150 μL of SPA beads suspension, and incubated while shaking at room temperature for 30 minutes. The plate was centrifuged at 100×g for 30 second before reading in a scintillation counter. IC50 values were determined by fitting the data to the standard 4 parameters with Hill Slope using GraphPad Prism software. This procedure produced the Flash Plate data in Table 7.
T1 sequence (O14744 whole entry): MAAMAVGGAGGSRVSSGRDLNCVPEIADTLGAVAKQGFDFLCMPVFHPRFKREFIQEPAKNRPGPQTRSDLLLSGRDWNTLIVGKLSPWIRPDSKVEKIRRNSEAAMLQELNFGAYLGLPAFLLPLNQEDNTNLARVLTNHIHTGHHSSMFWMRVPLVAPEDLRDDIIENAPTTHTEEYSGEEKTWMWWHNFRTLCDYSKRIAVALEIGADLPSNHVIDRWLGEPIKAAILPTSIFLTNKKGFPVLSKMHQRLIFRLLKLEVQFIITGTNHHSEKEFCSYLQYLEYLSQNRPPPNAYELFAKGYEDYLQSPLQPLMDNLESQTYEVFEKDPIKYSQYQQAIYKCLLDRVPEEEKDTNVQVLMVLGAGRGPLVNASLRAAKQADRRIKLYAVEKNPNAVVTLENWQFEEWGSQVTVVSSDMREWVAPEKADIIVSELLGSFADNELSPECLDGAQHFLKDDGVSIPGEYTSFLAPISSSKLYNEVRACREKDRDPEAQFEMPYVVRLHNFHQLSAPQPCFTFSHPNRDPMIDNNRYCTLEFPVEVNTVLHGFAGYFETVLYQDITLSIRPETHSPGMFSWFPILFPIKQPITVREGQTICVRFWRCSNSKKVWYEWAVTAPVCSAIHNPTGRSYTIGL
T1 sequence (Q9BQA1 whole entry partner): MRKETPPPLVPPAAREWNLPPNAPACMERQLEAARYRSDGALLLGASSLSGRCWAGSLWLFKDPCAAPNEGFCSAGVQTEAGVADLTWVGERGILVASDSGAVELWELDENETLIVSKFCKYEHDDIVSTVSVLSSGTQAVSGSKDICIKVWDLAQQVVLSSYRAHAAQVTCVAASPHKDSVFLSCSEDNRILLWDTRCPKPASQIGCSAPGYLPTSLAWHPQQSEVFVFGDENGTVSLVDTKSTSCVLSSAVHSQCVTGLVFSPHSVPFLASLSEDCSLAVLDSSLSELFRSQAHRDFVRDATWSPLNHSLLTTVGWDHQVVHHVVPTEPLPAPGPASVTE

Test [2] relates to Symmetric Di-Methyl Arginine (sDMA) marks in U-87 MG cells. Put plainly: sDMA Western blot / In Cell Western in U-87 MG cells. The following applies: Homo sapiens, 72 h, 3 days, read-out: sDMA_U87 IC50. It is filed as cell-based. As to the method: (§1) Compound titration and cell culture: Compounds were dissolved in DMSO to make 10 mM stock and 3-fold series dilutions were further conducted to make working stocks top at 1 mM. Granta-519 cells were maintained in PRMI 1640 (Corning Cellgro, Catalog #: 10-040-CV) supplemented with 10% v/v FBS (GE Healthcare, Catalog #: SH30910.03) and U-87 MG cells were maintained in DMEM (Corning Cellgro, Catalog #: 10-013-CV) with 10% FBS and 2 mM Glutamin (Corning Cellgro, Catalog #25005CV).
(§2) To determine enzyme inhibition IC50 values in Granta-519 and U-87 MG cells using Western Blot analysis. One day before experiment, Granta-519 cells were passaged to a density of 0.5×10^6 cells/ml. U-87 MG cells were trypsinized and 4×10^5 cells were seeded into 6-well plates and allow to grow overnight. The next day, Granta-519 cells were spun down at 1,500 rpm for 4 min, resuspend in fresh medium at 0.5×10^6 cells/ml and 3 mL of culture (1.5×10^6 cells) were seeded into 6 well plate. Eight-point, 3-fold serial dilutions of compound working stocks were added to cells (3 ul, 1:1,000 dilution, DMSO concentration was 0.1%; final top concentration at 1 uM) and incubated for 3 days. Cells incubated with DMSO was used as a vehicle control.
(§3) Cells were harvested 3 days later, resuspended in 15 uL PBS, lysed in 4% SDS, and homogenized by passing through homogenizer column (Omega Biotek, Catalog #: HCR003). Total protein concentrations were determined by BCA assay (ThermoFisher Scientific, Catalog #: 23225). Lysates were mixed with 5× Laemmli buffer and boiled for 5 min. Forty ug of total protein was separated on SDS-PAGE gels (Bio-Rad, catalog #: 4568083, 4568043), transferred to PVDF membrane, blocked with 5% dry milk (Bio-Rad, Catalog #: 1706404) in TBS with 0.1% v/v Tween 20 (TBST) for 1 hour at room temperature (RT), and incubated with primary antibodies (sDMA: Cell signaling, Catalog #: 13222, 1:3,000; β-Actin: sigma, Catalog #: 1:5,000) in 5% dry milk in TBST at 4° C. overnight. The next day, membranes were washed with TBST, 5×5 min, and incubated with HRP conjugated seconded antibody (GE Healthcare; Catalog #: NA934-1ML, NA931-1ML; 1:5,000) for 2 hours at RT, followed by 5×5 min washes with TBST, and incubation with ECL substrates (Bio-Rad, Catalog #: 1705061, 1705062). Chemiluminescent signal was captured with Fluochem HD2 imager (Proteinsimple). SmD3me2s bands were quantified by ImageJ. Signals were normalized to β-Actin and DMSO control. IC50 values were calculated using Graphpad Prism ([Inhibitor]vs. normalized response−Variable slope).
U87-MG cells were trypsinized one day before the experiment, seeded into a 384-well plate at 2500 cells/well using a Multidrop Combi Dispenser (ThermoFisher) and allowed to grow overnight. The next day (day 0), a series of 9-point, 3-fold serial dilutions of compounds were prepared and dispensed into wells from a 1 mM stock solution using a TECAN digital dispenser (D300e) and the DMSO % concentration was normalized to 0.1%. Three days later, media was removed, and cells were processed as described above.
To determine IC50 values, the ratio for each well was calculated (sDMA 800 nm value/DRAQ5 700 nm value). Each plate included 28 negative control wells (DMSO only, minimum inhibition) and 18 positive control wells for maximum inhibition (treated with 3 uM of a reference compounds, background wells). The average ratios of minimum and maximum inhibition controls were calculated and used to determine the percentage of sDMA, relative to DMSO, for each well in the plate.
These procedures generated the sDMA data in Table 7.

For test [3], the target named is T1, PRMT5/MEP50 complex. Kind of test: HotSpot Assay. In kind it is biochemical. As to the method:
HotSpot Assay. Compounds were solubilized and 3-fold diluted in 100% DMSO. […] Standard reactions were performed in a total volume of 50 μl in assay buffer, with histone H2A (5 μM final) as substrate. To this was added the PRMT5/MEP50 complex diluted to provide a final assay concentration of 5 nM and the compounds were allowed to preincubate for 15 to 20 minutes at room temperature. The reaction was initiated by adding S-[3H-methyl]-adenosyl-L-methionine (PerkinElmer) to final concentration of 1 μM. Following a 60 minutes incubation at 30° C., the reaction was stopped by adding 100 μL of 20% TCA. Each reaction was spotted onto filter plate (MultiScreen FB Filter Plate, Millipore), and washed 5 times with PBS buffer, Scintillation fluid was added to the filter plate and read in a scintillation counter. IC50 values were determined by fitting the data to the standard 4 parameters with Hill Slope using GraphPad Prism software. This procedure generated the HotSpot data in Table 7.

In test [4] the test system is Symmetric Di-Methyl Arginine (sDMA) marks in Granta-519 cells. Kind of test: sDMA Western blot / In Cell Western in Granta-519 cells. In kind it is cell-based. As to conditions: Homo sapiens, 72 h; Granta-519, 3 days; read-out: sDMA_Granta IC50. As to the method:
as §1, §2, §3
sDMA In Cell Western procedure (ICW): Granta-519 cells were passaged to a density of 0.5×10^6 cells/ml one day before experiments and allowed to grow overnight. The next day (day 0), cells were spun down at 1,500 rpm for 4 min, resuspended in fresh medium to 0.2×10^6 cells/ml and 100 uL of cells were added to 384-well plates using a Multidrop Combi Dispenser (ThermoFisher). A series of 9-point, 3-fold serial dilutions of compounds were prepared and dispensed into wells from a 1 mM stock solution using a TECAN digital dispenser (D300e) and the DMSO % concentration was normalized in each well to 0.1%. DMSO and 3 uM of reference compounds were used as negative (minimum inhibition) and positive (maximum inhibition) controls, respectively. After 3 days of incubation, cells were first resuspended and then 80 ul of cells were transferred to a Poly-D-lysine 384-well plate (Corning, Catalog #354663), followed by 30 minutes incubation at room temperature (RT) and 5 additional hours of incubation at 37° C. […]
On the technique in general: A western blot detects proteins with antibodies after separation by electrophoresis.

One may read the IC50 as the concentration at which inhibition is half-maximal.

Take `Cc1ncnc2c1ccn2[C@@H]1O[C@H]([C@H](O)c2ccc3c(c2)CCC3)[C@@H](O)[C@H]1O` [Example 44, (2R,3S,4R,5R)-2-((R)-(2,3-dihydro-1H-inden-5-yl)(hydroxy)methyl)-5-(4-methyl-7H-pyrrolo[2,3-d]pyrimidin-7-yl)tetrahydrofuran-3,4-diol]: the results for the IC50 (in the test with U-87 MG cells; on PRMT5/MEP50 complex [1]; in test [2]) were 1160 nM, 23.7 nM and 113 nM, respectively.
With `Cc1ncnc2c1ccn2[C@@H]1O[C@H]([C@](C)(O)c2ccc3c(c2)CC3)[C@@H](O)[C@H]1O` [Example 9, (2S,3S,4R,5R)-2-((R)-1-(bicyclo[4.2.0]octa-1(6),2,4-trien-3-yl)-1-hydroxyethyl)-5-(4-methyl-7H-pyrrolo[2,3-d]pyrimidin-7-yl)tetrahydrofuran-3,4-diol], the IC50 with U-87 MG cells turned out to be 388 nM; on PRMT5/MEP50 complex [3], 5 nM; at PRMT5/MEP50 complex [1], 24.3 nM; in test [2] it was 110 nM.
Regarding `Nc1ncnc2c1ccn2[C@@H]1O[C@H]([C@H](O)c2ccc3c(c2)OCC3)[C@@H](O)[C@H]1O` [Example 14, (2R,3R,4S,5R)-2-(4-amino-7H-pyrrolo[2,3-d]pyrimidin-7-yl)-5-((R)-(2,3-dihydrobenzofuran-6-yl)(hydroxy)methyl)tetrahydrofuran-3,4-diol], the IC50 on PRMT5/MEP50 complex [3] was 6 nM; on PRMT5/MEP50 complex [1] it was 4.4 nM; in test [4] it was 203 nM.
In the case of `Nc1ncnc2c1ccn2[C@@H]1O[C@H]([C@H](O)c2ccc3c(c2)CCC3)[C@@H](O)[C@H]1O` [Example 45, (2R,3R,4S,5R)-2-(4-amino-7H-pyrrolo[2,3-d]pyrimidin-7-yl)-5-((R)-(2,3-dihydro-1H-inden-5-yl)(hydroxy)methyl)tetrahydrofuran-3,4-diol], the IC50 in the test with U-87 MG cells turned out to be 547 nM; at PRMT5/MEP50 complex [1], 6.6 nM; in test [2], 54 nM.
On to `COCCc1ncnc2c1ccn2[C@@H]1O[C@H]([C@H](O)c2ccc3c(c2)CC3)[C@@H](O)[C@H]1O` [Example 48, (2R,3S,4R,5R)-2-((R)-bicyclo[4.2.0]octa-1(6),2,4-trien-3-yl(hydroxy)methyl)-5-(4-(2-methoxyethyl)-7H-pyrrolo[2,3-d]pyrimidin-7-yl)tetrahydrofuran-3,4-diol], for which the IC50 in the test on U-87 MG cells came to 10000 nM; at PRMT5/MEP50 complex [1], 74 nM; in test [4] it was 337 nM; in test [2] it was 758 nM.
In the same order, the values of `O[C@@H]1[C@H](O)[C@@H]([C@H](O)c2ccc3c(c2)CC3)O[C@H]1n1ccc2c(CF)ncnc21` [Example 49, (2R,3S,4R,5R)-2-((R)-bicyclo[4.2.0]octa-1(6),2,4-trien-3-yl(hydroxy)methyl)-5-(4-(fluoromethyl)-7H-pyrrolo[2,3-d]pyrimidin-7-yl)tetrahydrofuran-3,4-diol] are 10000 nM, 78 nM, 375 nM and 625 nM.

The record behind these values is patent publication US11524962B2, “Substituted pyrrolo[2,3-d]pyrimidines as inhibitors of protein arginine methyl transferase 5 (PRMT5)” (PRELUDE THERAPEUTICS, INCORPORATED, priority 2017, dated 2022).
